Earlier results, collected in publication PMC12162873, “Modulating phosphatase DUSP22 with BML-260 ameliorates skeletal muscle wasting via Akt independent JNK-FOXO3a repression” (EMBO Molecular Medicine, 2025).

Legend:
aldose reductase = test system: aldose reductase; parameters: method as in Ramirez and Borja, 2008; details: drug for diabetic neuropathy; ref Ramirez and Borja, 2008; cited from earlier work
JNK = test system: JNK; parameters: method as in ref [19] Bennett et al, 2001; details: ref [19] Bennett et al, 2001; cited from earlier work

SMILES	safety and tolerability (aldose reductase)	selectivity versus a range of kinases and enzymes tested (JNK)
CC(/C=C1\SC(=S)N(CC(=O)O)C1=O)=C\c1ccccc1 [Epalrestat]	safe, well-tolerated	
Oc1c2ccccc2c2c3c(cccc13)N=N2 [SP600125]		> 20 -fold
